These results are taken from publication PMC12414871, “Unraveling the functional dynamics of Caenorhabditis elegans stress‐responsive omega class GST‐44” (The Febs Journal, 2025).

Molecules are shown by their SMILES.

In this assay the target is T1, GST‐44 (Caenorhabditis elegans, UniProt O45352).
T1 construct: recombinant, E. coli BL21(DE3), vector pJC40 with removable N-terminal His tag, Ni-NTA purified
Kind of assay: thioltransferase assay, substrate saturation curve and Lineweaver-Burk diagram. In kind it is biochemical. To be noted: co-substrate GSH (thioltransferase assay; reduction of spontaneously formed mixed disulfide).

A word on the Km: it is the substrate concentration at which the rate is half of its maximum.

T1 sequence (O45352 entry or part of it): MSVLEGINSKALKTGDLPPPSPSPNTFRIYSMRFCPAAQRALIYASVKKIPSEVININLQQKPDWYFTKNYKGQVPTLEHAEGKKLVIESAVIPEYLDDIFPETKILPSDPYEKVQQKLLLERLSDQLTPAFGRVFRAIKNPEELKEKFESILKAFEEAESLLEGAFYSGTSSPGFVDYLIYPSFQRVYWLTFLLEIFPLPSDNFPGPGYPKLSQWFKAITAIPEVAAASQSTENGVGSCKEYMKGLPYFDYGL

Take `OCCSSCCO` [2‐hydroxyethyl disulfide]: the Km was 160 µM.
